Earlier results on one compound are cited in patent US20070104771A1, “Transdermal galantamine delivery system” (priority 2005, published 2007).

In the case of `COc1ccc2c3c1OC1CC(O)C=CC31CCN(C)C2` (stereo not shown) [galantamine, 4a, 5,9, 10, 11, 12-Hexahydro-3-methoxy-11-methyl-6H-benzofuro (3a, 3,2-ef) (2) benzazepin-6-ol], the oral bioavailability was 90%.
